According to the supplement of paper PMC8253809:

How the values were obtained:
[1] = tested on: DIPGX37 (H3.3 K27M diffuse intrinsic pontine glioma line); assay: maximal growth inhibition (yFin) relative to DMSO / staurosporine; higher = more efficacious
Outline: (§1)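 Viability readout was CellTiter-Glo luminescence, log2-transformed, normalised per plate to % activity between negative (solvent) and positive control wells, then pooled. This followed a 7-day exposure (3 days for iAstro) at 37 °C, 5% CO2 to a 10-point threefold dilution series (mean top concentration 35 μM), pin-tool delivered in triplicate to patient-derived pHGG/DIPG cell lines and astrocyte controls on 1% Geltrex-coated 384-well plates. Three- and four-parameter log-logistic fits were compared, and the one with the lowest AICc supplied EC50 and maximal response (yFin).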

[2] = tested on: DIPGX29 (H3.3 K27M diffuse intrinsic pontine glioma line); assay: as above
Outline: as §1

[3] = tested on: HGGX6 (H3.3 G34R paediatric high-grade glioma line); assay: as above
Outline: as §1

[4] = tested on: HGGX39 (paediatric high-grade glioma line); assay: as above
Outline: as §1

[5] = tested on: DIPGX37; assay: area under dose-response curve of % growth inhibition (log2 RLU vs DMSO / staurosporine), 1e-11 to 1e-4 M (% x log10 M); higher = more growth inhibition
Outline: (§2)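 Patient-derived pHGG/DIPG cell lines and astrocytes, cultured on 384-well plates with a 1% Geltrex coating, were given a 10-point threefold dilution series (mean top concentration 35 μM) in triplicate for 7 days (iAstro 3 days) at 37 °C, 5% CO2. CellTiter-Glo signal, log2-transformed and normalised per plate to % activity against solvent and positive controls, was fitted with a log-logistic curve or, where the sigmoid fit failed, a smoothing spline. Area under the curve was then computed by the trapezoid rule.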

[6] = tested on: DIPGX29; assay: as above
Outline: as §2

[7] = tested on: HGGX6; assay: as above
Outline: as §2

[8] = tested on: HGGX39; assay: as above
Outline: as §2

[9] = tested on: DIPGX37; assay: EC50 (inflection of fitted growth-inhibition curve) (log10 M)
Outline: as §1

[10] = tested on: DIPGX29; assay: as above
Outline: as §1

[11] = tested on: HGGX6; assay: as above
Outline: as §1

[12] = tested on: HGGX39; assay: as above
Outline: as §1

SMILES | maximal growth inhibition [1] | maximal growth inhibition [2] | maximal growth inhibition [3] | maximal growth inhibition [4] | area under dose-response curve [5] | area under dose-response curve [6] | area under dose-response curve [7] | area under dose-response curve [8] | EC50 (log10 M) [9] | EC50 (log10 M) [10] | EC50 (log10 M) [11] | EC50 (log10 M) [12]
COc1ccccc1-c1cc(Nc2cccc(CS(N)(=O)=O)c2)ncn1 | 59.7% | 71.9% | 65.7% | 48.3% | 39.8 | 58.4 | 54.4 | 40.5 | -4.68 | -4.82 | -4.83 | -4.84
Cc1nc(Nc2n[nH]c3c2CN(C(=O)N[C@H](CN(C)C)c2ccccc2)C3(C)C)c2sccc2n1 | 80.1% | 77.2% | 75.5% | 79.6% | 177 | 150 | 174 | 120 | -5.56 | -5.45 | -5.66 | -5.22
Cc1nn(C)c(COc2ccc(N3CCN(S(=O)(=O)N(C)C)CC3)cc2)c1-c1cccc2c(CCCOc3cccc4ccccc34)c(C(=O)O)n(CCN3CCOCC3)c12 | 110% | 92.1% | – | – | 79.7 | 81.7 | 4.05 | 0 | -4.73 | -4.9 | – | –
O=C1NCCc2[nH]c(-c3ccncc3)cc21 | 58.9% | 67.8% | 65.9% | 71.2% | 111 | 110 | 124 | 98.2 | -5.9 | -5.62 | -5.81 | -5.41
COc1cc2c(cc1O)CC[C@@H]1[C@@H]2CC[C@]2(C)[C@@H](O)CC[C@@H]12 [2-METHOXYESTRADIOL] | 36.4% | 22.8% | 23.6% | 53% | 48.8 | 40.9 | 38.9 | 47.3 | -4.96 | -5.23 | -5.65 | -4.89
Nc1nccc2c1ncn2[C@@H]1C=C(CO)[C@@H](O)[C@H]1O [3-DEAZANEPLANOCIN] | – | 21.5% | – | – | 16.8 | 76 | 36.5 | 33.5 | – | -7.53 | – | –
CC(C)(C)C(=O)OCOP(=O)(COCCn1cnc2c(N)ncnc21)OCOC(=O)C(C)(C)C [ADEFOVIR DIPIVOXIL] | 34.3% | – | 20.9% | 21.4% | 53.7 | 25.6 | 22.2 | 36.5 | -5.54 | – | -5.06 | -5.71
CCCSc1ccc2[nH]c(NC(=O)OC)nc2c1 [ALBENDAZOLE] | 28.7% | – | 23% | 32% | 60.2 | 33.5 | 28.7 | 66 | -6.1 | – | -5.18 | -6.13
CC(C)c1c(C(=O)Nc2ccccc2)c(-c2ccccc2)c(-c2ccc(F)cc2)n1CC[C@@H](O)C[C@@H](O)CC(=O)O [ATORVASTATIN] | 22% | – | 55.1% | 84.1% | 66.2 | 48 | 55.5 | 108 | -6.26 | – | -4.88 | -5.24
CNC(=O)c1ccccc1Sc1ccc2c(/C=C/c3ccccn3)n[nH]c2c1 [AXITINIB] | – | 21.1% | 28.6% | 23.3% | 55.3 | 45.4 | 67.6 | 46.3 | – | -6.07 | -6.35 | -5.96
Clc1ccccc1C(c1ccccc1)(c1ccccc1)n1ccnc1 [CLOTRIMAZOLE] | – | 29.5% | 26.3% | 23% | 13.3 | 27.2 | 31.5 | 27.8 | – | -4.92 | -5.22 | -5.21
Cc1nc2c([nH]1)-c1ccccc1N(C(=O)c1ccc(NC(=O)c3ccccc3-c3ccccc3)cc1)CC2 [CONIVAPTAN] | 36% | 26.5% | – | 83.9% | 35.9 | 29.9 | 6.44 | 60.9 | -4.59 | -4.73 | – | -4.73
O=c1[nH]c(=O)n([C@H]2C[C@H](O)[C@@H](CO)O2)cc1F [FLOXURIDINE] | – | 30% | – | – | 18.8 | 46.2 | 23.5 | 26.8 | – | -5.39 | – | –
Nc1ccn([C@@H]2O[C@H](CO)[C@@H](O)C2(F)F)c(=O)n1 [GEMCITABINE] | – | 20.3% | – | – | 83.9 | 81.9 | 54.2 | 68.9 | – | -8.08 | – | –
CCNc1nc(Nc2cc(F)c(C(=O)N3CCOCC3)cc2OC)ncc1C(F)(F)F [GNE-7915] | – | 28.7% | – | 38.7% | 15.9 | 23.5 | 21.1 | 29.7 | – | -4.82 | – | -4.79
CC[C@H](C)n1cc(C)c2c(C(=O)NCc3c(C)cc(C)[nH]c3=O)cc(-c3ccc(N4CCNCC4)nc3)cc21 [GSK126] | 76.7% | 76.4% | 74.4% | – | 74.3 | 66.1 | 61.2 | 13.1 | -4.88 | -4.87 | -4.83 | –
Cc1cc(C)c(S(=O)(=O)N(Cc2ccc(-c3cccc(S(C)(=O)=O)c3)cc2)Cc2ccc(C(F)(F)F)o2)c(C)c1 [GSK-2033] | – | 87.3% | – | – | 22.5 | 89 | 30.1 | 0 | – | -5.05 | – | –
COc1cc2c(cc1-c1c(C)noc1C)ncc1[nH]c(=O)n([C@H](C)c3ccccn3)c12 [I-BET151] | 25.8% | 21.8% | – | 45% | 43.5 | 31.6 | 37.1 | 47.5 | -5.65 | -5.05 | – | -5.03

SMILES | maximal growth inhibition [1] | maximal growth inhibition [2] | maximal growth inhibition [3] | maximal growth inhibition [4] | area under dose-response curve [5] | area under dose-response curve [6] | area under dose-response curve [7] | area under dose-response curve [8] | EC50 (log10 M) [9] | EC50 (log10 M) [10] | EC50 (log10 M) [11] | EC50 (log10 M) [12]
CC(=O)N1c2ccc(-c3ccc(C(=O)O)cc3)cc2[C@H](Nc2ccc(Cl)cc2)C[C@@H]1C [I-BET726] | 37.1% | 30% | – | 37.7% | 79.4 | 43 | 44.5 | 55.9 | -6.37 | -5.48 | – | -5.73
CC(C)NC[C@@H](C(=O)N1CCN(c2ncnc3c2[C@H](C)C[C@H]3O)CC1)c1ccc(Cl)cc1 [IPATASERTIB] | 21.5% | 50.3% | 31.8% | – | 25.8 | 64.7 | 49 | 11.9 | -5.27 | -5.18 | -5.67 | –
Clc1ccc(NN=C(c2ccccc2)c2ccccn2)nc1 [JIB-04] | – | 47.2% | 50.7% | 34.3% | 25.7 | 63.6 | 61.4 | 34.4 | – | -5.13 | -5.07 | -5.02
CC[C@H](C)C(=O)O[C@H]1C[C@@H](C)C=C2C=C[C@H](C)[C@H](CC[C@@H]3C[C@@H](O)CC(=O)O3)[C@H]21 [LOVASTATIN] | 23.7% | – | 21.5% | 68% | 36.7 | 29.8 | 29.1 | 94.8 | -5.76 | – | -5.49 | -5.37
S=c1[nH]cnc2nc[nH]c12 [MERCAPTOPURINE] | – | 20.5% | 21.1% | – | 38 | 44.1 | 25.5 | 28 | – | -6.35 | -5.3 | –
CN(C)CCCNC(=O)c1ccc(-c2cc(O)c3ncccc3c2)cc1 [ML324] | – | 43.7% | 44.1% | – | 4.39 | 35.8 | 29.4 | 14.9 | – | -4.82 | -4.67 | –
CCC(CC)(NC(=O)C(C)C)C(=O)N[C@@H](CCCN=C(N)N)C(=O)NC1(C(=O)NC(c2ccc(F)cc2)c2ccc(F)cc2)CCCC1 [MM-102] | – | 33.9% | 63.5% | – | 6.41 | 39.7 | 65.5 | 12.2 | – | -5.17 | -5.03 | –
O=C(O)C[C@H](O)C[C@H](O)/C=C/c1c(C2CC2)nc2ccccc2c1-c1ccc(F)cc1 [PITAVASTATIN] | – | 49.2% | 66.4% | 92.9% | 121 | 75.6 | 95.1 | 215 | – | -5.04 | -5.36 | -6.26
CCCCOc1ccc(OCCCN2CCOCC2)cc1 [PRAMOXINE] | 55.5% | – | 23.9% | 77% | 46.2 | 17.3 | 23.2 | 70.5 | -4.83 | – | -4.97 | -4.82
CC(C)c1nc(N(C)S(C)(=O)=O)nc(-c2ccc(F)cc2)c1/C=C/[C@@H](O)C[C@@H](O)CC(=O)O [ROSUVASTATIN] | 22.7% | – | 21.2% | 61.4% | 37.5 | 25.2 | 30.4 | 83.4 | -5.85 | – | -5.54 | -5.45
Cn1cnc2c(F)c(Nc3ccc(Br)cc3Cl)c(C(=O)NOCCO)cc21 [SELUMETINIB] | 83.2% | 34.5% | – | – | 96 | 52.5 | 26.8 | 14.2 | -4.93 | -4.87 | – | –
Nc1ncnc2c1ncn2[C@@H]1O[C@H](C[C@@H](N)CC[C@H](N)C(=O)O)[C@@H](O)[C@H]1O [SINEFUNGIN] | – | 21.5% | – | – | 0 | 29 | 4.01 | 0 | – | -5.35 | – | –
CCc1c2c(nc3ccc(O)cc13)-c1cc3c(c(=O)n1C2)COC(=O)[C@]3(O)CC [SN-38] | 49% | – | 23.2% | 46.5% | 125 | 68.7 | 65.4 | 167 | -6.02 | – | -6.77 | -6.74
Nc1nc2[nH]cnc2c(=S)[nH]1 [THIOGUANINE] | 60.4% | 35.6% | – | 22.1% | 89.3 | 59.5 | 21.6 | 33.7 | -5.44 | -5.83 | – | -5.68
O=C(NCC1(c2nc(-c3ccccc3)cs2)CCOCC1)c1cccc(-c2noc(C(F)(F)F)n2)c1 [TMP269] | 44.2% | – | 21% | 25.1% | 53.7 | 28 | 27.4 | 22.7 | -4.89 | – | -4.93 | -4.9
CCC(COC(=O)c1cc(OC)c(OC)c(OC)c1)(c1ccccc1)N(C)C (centres undefined) [TRIMEBUTINE] | 25.6% | – | 22.6% | 55.5% | 35.6 | 28.3 | 19.8 | 60.1 | -5.38 | – | -4.87 | -5.08
C=C[C@]1(C)C[C@@H](OC(=O)CSC(C)(C)CNC(=O)[C@H](N)C(C)C)[C@]2(C)[C@H](C)CC[C@]3(CCC(=O)[C@H]32)[C@@H](C)[C@@H]1O [VALNEMULIN] | 30.2% | 55.5% | – | 30.5% | 24 | 59.9 | 12 | 42.1 | -4.79 | -4.85 | – | -5.56
CC[C@]1(O)C[C@@H]2CN(CCc3c([nH]c4ccccc34)[C@@](C(=O)OC)(c3cc4c(cc3OC)N(C)[C@H]3[C@@](O)(C(=O)OC)[C@H](OC(C)=O)[C@]5(CC)C=CCN6CC[C@]43[C@@H]65)C2)C1 [VINBLASTINE] | – | 50.4% | 23.5% | – | 58.2 | 88.8 | 58.8 | 53.5 | – | -5.63 | -5.46 | –
